In ChEMBL document CHEMBL6134869, “Silaproline-bearing nirmatrelvir derivatives are potent inhibitors of the SARS-CoV-2 main protease highlighting the value of silicon-derivatives in structure-activity-relationship studies” (Eur J Med Chem, 2025):

Legend:
[1] = Inhibition of recombinant SARS-CoV-2 main protease using ALNDFSNSGSDVLYQPPQTSITSAVLQSGFRKMAFPS-NH2 as substrate preincubated for 15 mins followed by substrate addition and measured after 30 mins by Solid phase extraction coupled with MS analysis; set-up: species or system Severe acute respiratory syndrome coronavirus 2
SARS-CoV-2 = test: Antiviral activity against SARS-CoV-2 MT007544.1 infected in African green monkey Vero E6 cells pre infected with virus for 1 hrs followed by incubation with cells for 2 hrs and measured after 20 hrs by ELISPOT reader based analysis; type: functional, organism-based; settings: Severe acute respiratory syndrome coronavirus 2, MT007544.1, Vero C1008
Vero C1008 = test: Cytotoxicity against African green monkey Vero E6 cells; type: toxicity, cell-based; settings: chlorocebus sabaeus
[2] = system: Severe acute respiratory syndrome coronavirus 2; test: Inhibition of recombinant SARS-CoV-2 main protease assessed as Kinact/Ki using ALNDFSNSGSDVLYQPPQTSITSAVLQSGFRKMAFPS-NH2 as substrate preincubated for 15 mins followed by substrate addition and measured after 30 mins by Solid phase extraction coupled with MS analysis; settings: time 45.0 min

| SMILES | IC50 [1] [nM] | EC50 (SARS-CoV-2) [nM] | Activity (Vero C1008) | K [2] [M⁻¹ s⁻¹] |
| --- | --- | --- | --- | --- |
| COC(=O)N[C@H](C(=O)N1CC(C)(C)C[C@H]1C(=O)N[C@H](C#N)C[C@@H]1CCNC1=O)C(C)(C)C | 30 | > 50000 | Non-toxic |  |
| COC(=O)N[C@H](C(=O)N1C[Si](C)(C)C[C@H]1C(=O)N[C@H](C#Cc1ccccc1)C[C@@H]1CCNC1=O)C(C)(C)C | > 50000 | > 50000 |  |  |
| CC(C)(C)[C@H](NC(=O)C(F)(F)F)C(=O)N1C[Si](C)(C)C[C@H]1C(=O)N[C@H](C#N)C[C@@H]1CCNC1=O | 41 | 24000 | Non-toxic |  |
| CC(C)(C)[C@H](NC(=O)C(F)(F)F)C(=O)N1C[C@H]2[C@@H]([C@H]1C(=O)N[C@H](C#N)C[C@@H]1CCNC1=O)C2(C)C [NIRMATRELVIR] |  |  | Non-toxic |  |
| C#C[C@H](C[C@@H]1CCNC1=O)NC(=O)[C@@H]1C[Si](C)(C)CN1C(=O)[C@@H](NC(=O)C(F)(F)F)C(C)(C)C | 280 | 46000 |  |  |
| C#C[C@H](C[C@@H]1CCNC1=O)NC(=O)[C@@H]1C[Si](C)(C)CN1C(=O)[C@@H](NC(=O)OC)C(C)(C)C | 340 | > 50000 |  | 3640 |
| C#C[C@H](C[C@@H]1CCNC1=O)NC(=O)[C@@H]1[C@@H]2[C@H](CN1C(=O)[C@@H](NC(=O)C(F)(F)F)C(C)(C)C)C2(C)C |  |  |  | 597 |
| COC(=O)N[C@H](C(=O)N1C[Si](C)(C)C[C@H]1C(=O)N[C@H](C#N)C[C@@H]1CCNC1=O)C1CCCCC1 | 113 |  |  |  |
| C#C[C@H](C[C@@H]1CCNC1=O)NC(=O)[C@@H]1CC(C)(C)CN1C(=O)[C@@H](NC(=O)OC)C(C)(C)C | 320 | > 50000 |  |  |
| COC(=O)N[C@H](C(=O)N1C[Si](C)(C)C[C@H]1C(=O)N[C@H](C#N)C[C@@H]1CCNC1=O)C(C)(C)C | 59 | > 50000 | Non-toxic |  |
